The text below walks through data of PMC8047729, “Identification of a nanomolar affinity α-synuclein fibril imaging probe by ultra-high throughput in silico screening” (Chemical Science, 2020).

“Also recorded” adds a separate entry of the source.

The target in the first assay is αS fibrils (Homo sapiens, UniProt P37840).
Assay: not given
Settings: not given
Turning to `Cc1ccc(OCC(=O)Nc2cc(-c3ccc(I)cc3)no2)cc1C` [Compound 61], the equilibrium dissociation constant (Kd) (as a rule, the equilibrium constant for the complex coming apart) was found to be 1 nM.

The same assay, now with this note: from saturation binding Kd values.
On to `Cc1ccc(OCC(=O)Nc2cc(-c3ccc(I)cc3)no2)cc1C` [Compound 61], for which the “Selectivity for αS fibrils over amyloid β (Aβ42 fibrils)” value is ~5 fold.

The target of the next assay is T1, αS fibrils, Site 2 ([^3H]Tg-190b) (Homo sapiens, UniProt P37840). The experiment in a line: Single-concentration radioligand competition screen (100 nM compound) against [^3H]Tg-190b. It counts as binding. As to conditions: 100 nM αS fibrils, [^3H]Tg-190b 6 nM. Here is the method:
Compounds 1–17 were purchased from vendors that were listed on the ZINC15 compound library. […] Total binding was measured in the absence of competitor and nonspecific binding was determined in reactions containing unlabeled Tg-190b (1 μM) or BF2846 (0.5 μM). […] Filters containing the bound ligand were mixed with 3 mL of scintillation cocktail (MicroScint-20, PerkinElmer, Inc.) and counted after 12 h of incubation on a MicroBeta System (PerkinElmer, Inc.). All data points were measured in triplicate. Screening of compounds 18–56 for the SAR study was performed in a similar fashion.
In Vitro Radioligand Binding Assays
Screening compound library. Compounds 1-17 (Fig. S8) were purchased from vendors that were listed on the ZINC15 compound library. 3 Compounds were screened for αS binding and after identifying the lead compound, 6, the core structure of compound 6 and its pyrazole or oxadiazole derivatives were used for similarity search on the Mcule, Inc. website.12 The similarity threshold was set to higher than 0.8, then compound 18-56 (Fig. S9) were chosen and ordered from the four companies mentioned above.
In order to screen the purchased compounds for αS binding, 100 nM solutions of each compound (1-56) were incubated for 1 hour at 37 °C with 100 nM αS fibrils and [3H]Tg-190b (6 nM) or [3H]BF2846 (3 nM) in 50 mM Tris-HCl, pH 7.4. Total binding was measured in the absence of competitor and nonspecific binding was determined in reactions containing unlabeled Tg-190b (1 µM) or BF2846 (0.5 µM). After incubation, bound and free radioligand were […]
scintillation cocktail (MicroScint-20, PerkinElmer; Waltham, MA, USA) and counted after 12 h of incubation on a MicroBeta System (PerkinElmer). All data points were acquired in triplicate.
Percentage of bound radioligand relative to total binding was plotted and data was analyzed by One-Way ANOVA, comparing the mean of each data set to the mean of total binding. […]
are shown in Fig. 2 in the main text, and Fig. S8 and S10.
Turning to `COc1ccc(OCC(=O)Nc2cc(-c3ccc(F)cc3)no2)cc1` [Compound 34], the “Binding in Site 2 radioligand competition screen (in words)” value (“Binding” below) was “moderate to strong binding”.
For `Cc1ccc(OCC(=O)Nc2cc(-c3ccc(F)c(F)c3)no2)cc1C` [Compound 40], the “Binding” value is on record as “moderate to strong binding”.
Turning to `COc1ccc(OCC(=O)Nc2cc(-c3ccc(Br)cc3)no2)cc1` [Compound 31], the “Binding” value is recorded as “moderate to strong binding”.
For the molecule `CC(Oc1ccc(F)cc1)C(=O)Nc1cc(-c2ccccc2)no1` (centres unmarked) [Compound 23], the “Binding” value is reported as “bind poorly”.
Consider `Cc1ccc(OCC(=O)Nc2cc(-c3ccccc3)no2)cc1C` [Compound 52], for which the “Binding” value is given as “moderate to strong binding”.
For the molecule `COc1ccccc1OCC(=O)Nc1cc(-c2ccccc2)no1` [Compound 27], the “Binding” value is “hinder binding”.
On to `COc1ccc(OCC(=O)Nc2cc(-c3ccc(C)cc3)no2)cc1` [Compound 19], for which the “Binding” value is “moderate to strong binding”.
Turning to `COc1ccc(OCC(=O)Nc2cc(-c3ccccc3)no2)cc1` [Compound 24], the “Binding” value is recorded as “moderate to strong binding”.
`COc1ccc(OCC(=O)Nc2cc(-c3ccc(F)c(F)c3)no2)cc1` [Compound 39]: the “Binding” value is given as “moderate to strong binding”.
Regarding `O=C(COc1ccc(F)cc1)Nc1cc(-c2ccccc2)n[nH]1` [Compound 55], the “Binding” value is given as “moderate affinity”.
As for `O=C(COc1ccc(F)cc1)Nc1noc(-c2ccccc2)n1` [Compound 50], the “Binding” value is “bound more poorly than the corresponding isoxazole compound; also recorded: weak binders”.
As to `COc1ccc(OCC(=O)Nc2noc(-c3ccccc3)n2)cc1` [Compound 48], the “Binding” value is listed as “bound more poorly than the corresponding isoxazole compound”.
For `O=C(COc1ccccc1)Nc1noc(-c2ccccc2)n1` [Compound 51], the “Binding” value is on record as “bound more poorly than the corresponding isoxazole compound”.
Consider `O=C(COc1ccc(F)cc1)Nc1cc(-c2ccccc2)no1` [Compound 25], for which the “Binding” value is recorded as “weak binders”.
Take `Cc1ccc(OCC(=O)Nc2cc(-c3ccc(Br)cc3)no2)cc1C` [Compound 28]: the “Binding” value is “moderate to strong binding”.

A further assay has as its target T1, αS fibrils, Site 2 ([^3H]Tg-190b). Put plainly: Competition binding assay with Site 2 radioligand [^3H]Tg-190b on αS fibrils. As to conditions: αS fibrils 100 nM, [^3H]Tg-190b 6 nM, 1 h 37 °C; 95% confidence intervals in parentheses in Table 1 (n = 3). Here is the method:
(§1) Fig. S10 Screening of SAR Library Derived from Compound 6. Site 2 radioligand competition binding assays with [3H]Tg-190b. ANOVA was performed with Dunnett’s multiple comparisons test, where […]
(§2) *P<0.0332, **P<0.0021, ***P<0.0002 and ****P<0.0001.
(§3) Competition binding assay. αS fibrils (100 nM for Site 2 and 50 nM for Site 9) were mixed with Site 2 ligand [3H]Tg-190b (6 nM) or Site 9 ligand [3H]BF2846 (3 nM) and varying concentrations of unlabeled compounds 2, 6, 24, 28, 31, 39, 40, or 52. Compounds were diluted in 50 mM Tris-HCl buffer (pH 7.4) and mixed with fibrils and radioligand in a total volume of 150 µL. Total binding was measured in the absence of competitor and nonspecific binding was determined in reactions containing unlabeled Tg-190b (1 µM) or BF2846 (0.5 µM). In a duplicate set of binding […]
(§4) binding to the filter paper. Reactions were incubated at 37 °C for 1 h. After incubation, bound […]
(§5) Filters containing the bound ligand were mixed with 3 mL of scintillation cocktail (MicroScint-20, PerkinElmer) and counted after 12 h of incubation on a MicroBeta System (PerkinElmer). All data points were acquired in triplicate.
(§6) (1 picture or pasted object on this page, not shown here)
(§7) The measured cpm values were converted to % specific binding as described by the equation […]
(§8) % specific binding = !"#$"#% "# ’() *+),)#-) ./ -.0*)’"’.+1#.#,*)-"/"- !"#$"#% ∗ 100 ’.’23 !"#$"#%1#.#,*)-"/"- !"#$"#%
(§9) IC50 values were calculated by fitting the data to Equation S1 below by non-linear regression, using GraphPad Prism software:
(§10) Y = Bottom + (Top-Bottom) / (1+ 10(813.%9:;<)) (S1) where logIC50 is the log of the concentration of competitor that results in binding half-way between Bottom and Top; Top and Bottom are plateaus in the units of Y axis; they are binding observed in the absence of competitor and in the presence of a maximal concentration of competitor, respectively. Binding curves for compounds 2 and 6 are shown in Fig. 2 in the main text and for compounds 6, 24, 28, 31, 39, 40, and 52 in Figs. S11 and S12.
As to `Cc1ccc(OCC(=O)Nc2cc(-c3ccc(F)c(F)c3)no2)cc1C` [Compound 40], the IC50 (usually the concentration that gives 50% inhibition) amounted to 19.6 nM.
Regarding `COc1ccc(OCC(=O)Nc2cc(-c3ccc(Br)cc3)no2)cc1` [Compound 31], the IC50 turned out to be 68.7 nM.
The same measure, in the same setting: in the case of `Cc1ccc(N2CCN(c3cnn(-c4ccccc4)c(=O)c3Cl)CC2)cc1C` [Compound 2] it was 490 nM; in that of `Cc1ccc(OCC(=O)Nc2cc(-c3ccccc3)no2)cc1C` [Compound 52], 30.7 nM.
On to `COc1ccc(OCC(=O)Nc2cc(-c3ccccc3)no2)cc1` [Compound 24], for which the half-inhibitory concentration (IC50) was found to be 95.1 nM.
The same measure, in the same setting: as for `COc1ccc(OCC(=O)Nc2cc(-c3ccc(F)c(F)c3)no2)cc1` [Compound 39], the figure is 95.7 nM.

A further assay deals with αS fibrils, Site 9 ([^3H]BF2846) (Homo sapiens, UniProt P37840). The experiment in a line: Competition binding assay with Site 9 radioligand [^3H]BF2846 on αS fibrils. As to conditions: αS fibrils 50 nM, [^3H]BF2846 3 nM, 1 h 37 °C; 95% confidence intervals in parentheses (n = 3). The protocol:
as §1, §2, §3, §4, §5, §6, §7, §8, §9, §10
For the molecule `Cc1ccc(OCC(=O)Nc2cc(-c3ccc(F)c(F)c3)no2)cc1C` [Compound 40], the 50% inhibitory concentration (IC50) is > 1000 nM.
As to `COc1ccc(OCC(=O)Nc2cc(-c3ccc(Br)cc3)no2)cc1` [Compound 31], the IC50 came out at 37 nM.
The same measure, in the same setting: as for `Cc1ccc(OCC(=O)Nc2cc(-c3ccccc3)no2)cc1C` [Compound 52], the figure is > 1000 nM.
For the molecule `COc1ccc(OCC(=O)Nc2cc(-c3ccccc3)no2)cc1` [Compound 24], the half-inhibitory concentration (IC50) came out at 557 nM.
In the case of `COc1ccc(OCC(=O)Nc2cc(-c3ccc(F)c(F)c3)no2)cc1` [Compound 39], the half-maximal inhibitory concentration (IC50) is > 1000 nM.
With `Cc1ccc(OCC(=O)Nc2cc(-c3ccc(Br)cc3)no2)cc1C` [Compound 28], the 50% inhibitory concentration (IC50) worked out at 12.6 nM.
